Experimental data taken from ChEMBL document CHEMBL1201862, “PubChem BioAssay data set” (2004).
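Exposure lasted 48 hours, with cells grown in 96-well plates and compounds tested at five concentrations. Abbreviation: GI50, concentration required for 50% inhibition of growth.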 Active and inactive are the calls of the source. Rule as the data show it: active = GI50 up to about 1.1 µM and inactive = higher.

How the values were obtained:
Experiment in all cases: NCI-60 cell line screen, 48 h
BT-549 = tested on: BT-549
TK-10 = tested on: TK-10
SK-OV-3 = tested on: SK-OV-3
SF-539 = tested on: SF-539
NCI/ADR-RES = tested on: NCI/ADR-RES
MCF7 = tested on: MCF7
ACHN = tested on: ACHN
OVCAR-4 = tested on: OVCAR-4
HCT-116 = tested on: HCT-116
OVCAR-8 = tested on: OVCAR-8
MDA-N = tested on: MDA-N
OVCAR-3 = tested on: OVCAR-3
SW-620 = tested on: SW-620
U-251 = tested on: U-251
PC-3 = tested on: PC-3
HOP-92 = tested on: HOP-92
786-0 = tested on: 786-0
A498 = tested on: A498
COLO 205 = tested on: COLO 205

SMILES	GI50 (BT-549)	GI50 (TK-10)	GI50 (SK-OV-3)	GI50 (SF-539)	GI50 (NCI/ADR-RES)	GI50 (MCF7)	GI50 (ACHN)	GI50 (OVCAR-4)	GI50 (HCT-116)	GI50 (OVCAR-8)	GI50 (MDA-N)	GI50 (OVCAR-3)	GI50 (SW-620)	GI50 (U-251)	GI50 (PC-3)	GI50 (HOP-92)	GI50 (786-0)	GI50 (A498)	GI50 (COLO 205)
Oc1ccc2ccccc2c1CN(Cc1c(O)ccc2ccccc12)C1CCCCC1	19.8 µM (inactive)	17.3 µM (inactive)	42 µM (inactive)	16 µM (inactive)	23.5 µM (inactive)	15.5 µM (inactive)	18.3 µM (inactive)	18.7 µM (inactive)	15.8 µM (inactive)	21.3 µM (inactive)	15.4 µM (inactive)	19.1 µM (inactive)	20.1 µM (inactive)	20.2 µM (inactive)	17 µM (inactive)	18 µM (inactive)	15.6 µM (inactive)	27 µM (inactive)	16.1 µM (inactive)
O=C(/C=C/C=C/c1ccccc1)c1ccc2c(c1)CCCC2	26 µM (inactive)	73.6 µM (inactive)	72.9 µM (inactive)	54.5 µM (inactive)	25.8 µM (inactive)	32 µM (inactive)	70.8 µM (inactive)	43.7 µM (inactive)	31.6 µM (inactive)	33.1 µM (inactive)	19.6 µM (inactive)	35.6 µM (inactive)	45.8 µM (inactive)	35 µM (inactive)	36.5 µM (inactive)	30 µM (inactive)	39 µM (inactive)	38 µM (inactive)	40.4 µM (inactive)
Cc1sc(/N=C/c2c[nH]c3ccccc23)c(C#N)c1C	42.1 µM (inactive)	20 µM (inactive)	88.7 µM (inactive)	40.4 µM (inactive)	74.6 µM (inactive)	27.7 µM (inactive)	29.6 µM (inactive)	35.2 µM (inactive)	23.4 µM (inactive)	45.5 µM (inactive)	53.7 µM (inactive)	11.2 µM (inactive)	39.7 µM (inactive)	21.5 µM (inactive)	45.7 µM (inactive)	45.7 µM (inactive)	27.4 µM (inactive)	28.7 µM (inactive)	> 100 µM (inactive)
CN(C)CCCn1c(Cc2ccc(Cl)cc2)nc2cc(C(F)(F)F)ccc21	17 µM (inactive)	15.3 µM (inactive)	14.4 µM (inactive)	16.3 µM (inactive)	15.7 µM (inactive)	14.5 µM (inactive)	13.2 µM (inactive)	13.6 µM (inactive)	12.5 µM (inactive)	17.3 µM (inactive)	12 µM (inactive)	14.5 µM (inactive)	23.4 µM (inactive)	15.3 µM (inactive)	15.4 µM (inactive)	9.98 µM (inactive)	13.9 µM (inactive)	12.7 µM (inactive)	10.7 µM (inactive)
Cc1ccc(-c2cn3c(nc4ccccc43)c(C)n2)cc1	25.9 µM (inactive)	43.9 µM (inactive)	7.66 µM (inactive)	> 54.3 µM (inactive)	40.1 µM (inactive)	0.578 µM (active)	30.3 µM (inactive)	59 µM (inactive)	32 µM (inactive)	36 µM (inactive)	54.1 µM (inactive)	48 µM (inactive)	> 100 µM (inactive)	32.4 µM (inactive)	46.6 µM (inactive)	8.93 µM (inactive)	25.8 µM (inactive)	19.8 µM (inactive)	49.9 µM (inactive)
CC(C)[Si]1(C(C)C)OCC2OC(n3ccc(=O)[nH]c3=O)C([Se]c3ccccc3)C2O[Si](C(C)C)(C(C)C)O1 (centres undefined)	11.6 µM (inactive)	7.46 µM (inactive)	16.5 µM (inactive)	7.96 µM (inactive)	11.2 µM (inactive)	2.75 µM (inactive)	2.61 µM (inactive)	2.88 µM (inactive)	2.62 µM (inactive)	3.4 µM (inactive)	3.4 µM (inactive)	4.52 µM (inactive)	2.32 µM (inactive)	2.07 µM (inactive)	3.35 µM (inactive)	3.5 µM (inactive)	3.83 µM (inactive)	7.87 µM (inactive)	4.86 µM (inactive)
CCOC(=O)/C=C(\C(=O)OCC)n1cnc2c(N)ncnc21	12.1 µM (inactive)	5.02 µM (inactive)	17.7 µM (inactive)	14.1 µM (inactive)	17.2 µM (inactive)	2.64 µM (inactive)	6.67 µM (inactive)	15.2 µM (inactive)	3.11 µM (inactive)	7.45 µM (inactive)	14.6 µM (inactive)	8.41 µM (inactive)	2.74 µM (inactive)	7.94 µM (inactive)	13.3 µM (inactive)	2.28 µM (inactive)	2.77 µM (inactive)	13.2 µM (inactive)	1.99 µM (inactive)
C/C(=N\O)c1cccc[n+]1Cc1ccccc1	> 100 µM (inactive)	> 100 µM (inactive)	> 100 µM (inactive)	> 100 µM (inactive)	> 100 µM (inactive)	> 100 µM (inactive)	> 100 µM (inactive)	> 100 µM (inactive)	> 100 µM (inactive)	> 100 µM (inactive)	> 100 µM (inactive)	> 100 µM (inactive)	> 100 µM (inactive)	> 100 µM (inactive)	> 100 µM (inactive)	> 100 µM (inactive)	> 100 µM (inactive)	> 100 µM (inactive)	> 100 µM (inactive)
Nc1c(S(=O)(=O)O)cc(S(=O)(=O)O)c2ccc(/N=N/c3ccccc3)c(O)c12	> 100 µM (inactive)	> 100 µM (inactive)	> 100 µM (inactive)	> 100 µM (inactive)	> 100 µM (inactive)	> 100 µM (inactive)	> 100 µM (inactive)	> 100 µM (inactive)	> 100 µM (inactive)	> 100 µM (inactive)	> 100 µM (inactive)	> 100 µM (inactive)	> 100 µM (inactive)	> 100 µM (inactive)	> 100 µM (inactive)	> 100 µM (inactive)	> 100 µM (inactive)	> 100 µM (inactive)	> 100 µM (inactive)
COC(=O)C12Oc3ccc(-c4ccc5c(c4O)C(O)=C4C(=O)CC(C)C(O)C4(C(=O)OC)O5)c(O)c3C(O)=C1C(=O)CC(C)C2O (centres undefined)	0.262 µM (active)	0.231 µM (active)	0.103 µM (active)	0.055 µM (active)	0.485 µM (active)	0.151 µM (active)	0.153 µM (active)	0.467 µM (active)	0.126 µM (active)	0.094 µM (active)	0.125 µM (active)	0.0719 µM (active)	0.0889 µM (active)	0.0525 µM (active)	0.0764 µM (active)	0.466 µM (active)	0.314 µM (active)	0.544 µM (active)	0.0656 µM (active)
CC(NNC(=O)c1ccncc1)c1ccc(F)cc1 (centres undefined)	> 100 µM (inactive)	> 100 µM (inactive)	> 100 µM (inactive)	> 100 µM (inactive)	> 100 µM (inactive)	> 100 µM (inactive)	> 100 µM (inactive)	> 100 µM (inactive)	> 100 µM (inactive)	> 100 µM (inactive)	> 100 µM (inactive)	> 100 µM (inactive)	> 100 µM (inactive)	> 100 µM (inactive)	> 100 µM (inactive)	> 100 µM (inactive)	> 100 µM (inactive)	> 100 µM (inactive)	> 100 µM (inactive)
